Drawing on ChEMBL document CHEMBL1124616, “Hybrid cholecystokinin (CCK) antagonists: new implications in the design and modification of CCK antagonists” (J Med Chem, 1989), this text covers IC50 for ten compounds.

For experiment [1], the target named is T1, Cholecystokinin receptor type A (Cavia porcellus, UniProt Q63931).
T1 sequence (Q63931 whole entry): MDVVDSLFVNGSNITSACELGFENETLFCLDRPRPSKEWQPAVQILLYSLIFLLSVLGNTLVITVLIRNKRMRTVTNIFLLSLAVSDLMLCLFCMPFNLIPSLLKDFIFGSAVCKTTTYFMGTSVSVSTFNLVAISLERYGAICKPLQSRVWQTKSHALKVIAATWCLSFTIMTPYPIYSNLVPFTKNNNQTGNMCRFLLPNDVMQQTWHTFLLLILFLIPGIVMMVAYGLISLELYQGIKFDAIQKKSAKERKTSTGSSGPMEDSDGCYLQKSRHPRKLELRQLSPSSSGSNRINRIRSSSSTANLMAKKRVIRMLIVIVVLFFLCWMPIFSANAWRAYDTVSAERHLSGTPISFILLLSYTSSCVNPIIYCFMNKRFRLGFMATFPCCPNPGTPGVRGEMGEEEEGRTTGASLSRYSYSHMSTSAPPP
The experiment can be described thus: Compound was evaluated for the binding affinity against Cholecystokinin type A receptor in pancreatic acinar cell.

The target of experiment [2] is T2, Gastrin/cholecystokinin type B receptor (Cavia porcellus, UniProt H0VZC5). The experiment in a line: Compound was evaluated for the binding affinity against Cholecystokinin type A receptor in cortical cells. The format is cell-based.
A further experiment is filed under the species Cavia porcellus. The experiment can be described thus: Compound was evaluated for the ability to inhibit CCK-stimulated amylase release in pancreatic acinar cells of guinea pig. The format is functional.
Experiment [3] concerns the target T1, Cholecystokinin receptor type A. The experiment in a line: Compound was evaluated for the binding affinity against CCK A receptor in pancreatic acinar cell.
Experiment [4] has as its target T2, Gastrin/cholecystokinin type B receptor. The experiment can be described thus: Compound was evaluated for the binding affinity against CCK A receptor in cortical cells. The format is cell-based.

As a reminder, the IC50 is the concentration needed to halve the response being measured. Read a low IC50 as higher potency.

T2 sequence (H0VZC5 1-426): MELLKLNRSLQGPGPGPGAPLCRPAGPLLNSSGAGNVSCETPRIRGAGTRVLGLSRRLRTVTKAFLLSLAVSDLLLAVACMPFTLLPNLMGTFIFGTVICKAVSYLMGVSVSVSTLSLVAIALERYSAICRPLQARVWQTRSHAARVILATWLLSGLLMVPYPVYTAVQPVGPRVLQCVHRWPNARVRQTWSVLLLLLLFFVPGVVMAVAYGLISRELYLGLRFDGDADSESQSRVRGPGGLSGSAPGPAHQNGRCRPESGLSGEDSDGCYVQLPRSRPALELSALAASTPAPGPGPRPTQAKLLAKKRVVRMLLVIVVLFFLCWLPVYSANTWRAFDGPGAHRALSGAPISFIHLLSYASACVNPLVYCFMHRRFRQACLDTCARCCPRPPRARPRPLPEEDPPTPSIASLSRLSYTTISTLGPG

For `CCCCCN(CCCCC)C(=O)[C@@H](CCC(=O)O)NC(=O)c1cccc2ccccc12`, the figures for the IC50 (in experiment [1]; in experiment [2]; in the experiment filed under Cavia porcellus) were 320 nM, 11000 nM and 280 nM, respectively.
The compound `CCCCCN(CCCCC)C(=O)[C@@H](CCC(=O)O)NC(=O)c1cc2ccccc2[nH]1` returned an IC50 in the experiment filed under Cavia porcellus of 36 nM.
Regarding `CCCCCN(CCCCC)C(=O)[C@@H](CCC(=O)O)NC(=O)c1cnc2ccccc2c1`, half-maximal inhibition in the experiment filed under Cavia porcellus (IC50) required 16 nM.
In experiment [1], `CCCCCN(CCCCC)C(=O)[C@@H](CCC(=O)O)NC(=O)c1ccc2ccccc2n1` yielded an IC50 of 63 nM.
In the experiment filed under Cavia porcellus, `CCCCCN(CCCCC)C(=O)[C@H](CCC(=O)O)NC(=O)c1cc2ccccc2[nH]1` yielded a 50% inhibitory concentration (IC50) of 590 nM.
Consider `CCCCCN(CCCCC)C(=O)[C@H](CCC(=O)O)NC(=O)c1ccc(Cl)c(Cl)c1`, for which the IC50 was 4900 nM in experiment [3] and 11000 nM in the experiment listed under Cavia porcellus.
Regarding `CCCCCN(CCCCC)C(=O)[C@@H](CCC(=O)O)NC(=O)c1c[nH]c2ccccc12`, the IC50 in experiment [2] worked out at 32000 nM; in the experiment listed under Cavia porcellus it was 830 nM.
In the case of `CCCCCN(CCCCC)C(=O)[C@@H](CCC(=O)O)NC(=O)c1ccc2ncccc2c1`, the IC50 in experiment [4] amounted to 11000 nM; in experiment [3], 31 nM; in the experiment listed under Cavia porcellus, 65 nM.
As to `CCCCCN(CCCCC)C(=O)[C@@H](CCC(=O)O)NC(=O)c1ccc(Cl)c(Cl)c1`, it took 180 nM to reach half-maximal inhibition in the experiment filed under Cavia porcellus (IC50).
For `CCCCCN(CCCCC)C(=O)[C@@H](CCC(=O)O)NC(=O)c1ccc2ccccc2c1` [AMIGLUMIDE], the results for the IC50 (in experiment [1]; in experiment [2]; in the experiment listed under Cavia porcellus) were 12 nM, 4200 nM and 36 nM, respectively.
